The values that follow come from PubChem BioAssay (NCI).

Where “and” joins values, the source holds several entries; their conditions need not be identical. Equal values may be shown once.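 Interpolation was linear, between the two tested concentrations surrounding the appropriate level; five concentrations were tested over 48 hours in 96-well plates. GI50: concentration for 50% inhibition of growth. TGI is the concentration that stops growth completely.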

The test concerns MDA-MB-468 breast. Kind of test: NCI-60 cell line screen, 48 h.
Turning to `COC(=O)c1ccc2[nH]c(O)c(C(=Nc3ccc(N(C)C(=O)CN4CCN(C)CC4)cc3)c3cccc(OC)c3)c2c1`, the GI50 was 1.44 µM and the TGI is 3.5 µM.

As for `CCn1cc(C2NC(=O)c3ccccc3N2)c2cccc(C)c21` (stereo not drawn), the GI50 is 0.216 µM and the TGI stood at 0.656 µM.

For the compound `Cn1ccnc1C(=O)/C=C/c1ccc(C(=O)Nc2ccc(F)cc2)cc1`, the GI50 is 0.813 µM and the TGI was 3.06 µM.

Take `[Cl][Ru].c1ccc(-c2cc(-c3ccccn3)nc(-c3ccccn3)c2)cc1.c1ccc(-c2ccnc3c2ccc2c(-c4ccccc4)ccnc23)cc1`: the GI50 was 0.208 µM and the TGI turned out to be 0.635 µM.

`COc1cc(Cl)cc(-c2nn(-c3cccc(NC(=O)c4cccc(C(F)(F)F)c4)c3)cc2-c2ccncc2)c1`: the GI50 was 4.26 µM and the TGI was > 100 µM.

For the compound `C[C@H](Nc1ccc2c(c1)OCCn1cc(N3C(=O)OC[C@H]3C(F)F)nc1-2)C(N)=O`, the GI50 is 0.343 µM and the TGI was found to be 6.27 µM.

With `CN(C)c1ccc2nc3ccc(=[N+](C)C)c([N+](=O)[O-])c-3sc2c1`, the GI50 was 1.41 µM and the TGI worked out at 3.35 µM.

As for `O=C1/C(=C/c2ccc(Cl)cc2Cl)CN(S(=O)(=O)c2ccccc2)C/C1=C\c1ccc(Cl)cc1Cl`, the GI50 was 0.687 µM and the TGI was 2.73 µM.

Turning to `CN1CCN(CCCOc2ccc3ncnc(Nc4ccc(OCc5cccc(F)c5)c(Cl)c4)c3c2)CC1`, the GI50 was 0.367 µM and the TGI was 1.84 µM.

In the case of `CCOC(=O)c1cnc2c(C)cc(C)cc2c1NCCCN(C)C`, the GI50 was 2 µM and the TGI was found to be 8.45 µM.

Regarding `COc1cccc(CNCCN2C(=O)c3ccc4c5c(ccc(c35)C2=O)C(=O)N(CCNCc2cccc(OC)c2)C4=O)c1`, the GI50 is 1.76 µM and the TGI was 3.56 µM.

In the case of `N#Cc1c(NC(=O)c2cccc(C(F)(F)F)c2F)sc2c1CCC(=O)C2`, the GI50 is 0.292 µM and the TGI is 1.03 µM.

For the compound `CCOc1cc2ncc(C#N)c(Nc3ccc(F)c(Cl)c3)c2cc1NC(=O)CC1CCSS1` (stereo not drawn), the GI50 is 0.473 µM and the TGI was found to be 1.17 µM.

As for `Cc1cc2nc(CS)[nH]c2cc1C`, the GI50 is 13 µM and the TGI is 30.4 µM.

As for `O=C1Nc2ccccc2/C1=C/C(=N/c1nnc(-c2ccc(Cl)cc2)s1)c1ccccc1`, the GI50 was 2.02 µM and the TGI came out at 6.27 µM.

As for `CCOC(=O)C(=Cc1ccc(-c2ccccc2)cc1)C(=O)OCC`, the GI50 is 3.24 µM and the TGI is 10.1 µM.

`Cc1ccc(C2CC(c3cccc(Nc4ccncc4)c3)=NN2c2cc(Cl)cc(Cl)c2)cc1` (stereo not drawn): the GI50 is 1.41 µM and the TGI came to 2.84 µM.

With `COc1ccc2c(c1)c(-c1nonc1-c1cn(C)c3ccccc13)cn2C`, the GI50 was 0.33 µM.

For the compound `Cc1ccc2c(c1)C(=O)C(c1c(-c3[nH]c(=O)c4ccc(C)cc4c3O)c(O)c3ccccc3c1O)=NC2=O`, the GI50 was 0.313 µM and the TGI was 0.987 µM.

Regarding `CN1CCN(CCOc2ccc(-c3cnc4c(-c5cccc(F)c5F)cnn4c3)cc2)CC1`, the GI50 is 1.45 µM and the TGI was found to be 3.06 µM.

As to `CCOC(=O)c1c(NC(=O)c2cccc(C(F)(F)F)c2)sc2c(CN3CCN(C)CC3)c(O)ccc12`, the GI50 was 1.65 µM and the TGI turned out to be 3.25 µM.

For `COc1cc2c(Nc3ccc(Cl)c(Cl)c3F)ncnc2cc1OCC1C[C@@H]2CN(C)C[C@@H]2C1` (stereo partly drawn), the GI50 is 0.0241 µM and 0.0217 µM and 0.0212 µM; the TGI is 0.175 µM and 0.633 µM and 0.213 µM.

Turning to `N#C/C(=C\c1ccc2c(c1)OCO2)n1nnc2ccccc21`, the GI50 is 0.555 µM and the TGI amounted to 7.98 µM.

For `C=C1CC[C@@H]2C(C)(C)[C@H](O)CC[C@@]2(C)[C@@H]1COc1ccc2ccc(=O)oc2c1`, the GI50 is 20.5 µM and the TGI was 78.2 µM.

Turning to `COc1cc(/C=C\c2cc(/C=C\c3ccc(O)c(OC)c3)n(C(=O)COc3ccc(Cl)cc3Cl)n2)ccc1O`, the GI50 was 1.99 µM and the TGI was 5.34 µM.

With `COc1ccc(C(=O)N2N=C(c3ccc(Br)cc3)CC2c2cn(-c3ccccc3)nc2-c2ccccc2)cc1` (stereo not drawn), the GI50 was 6.59 µM and the TGI was > 50 µM.

Consider `O=C(c1ccccc1)N(C(=S)NCCc1ccc(Cl)cc1)c1ccc(Cl)cc1`, for which the GI50 is 5.41 µM and the TGI is 33.4 µM.

In the case of `COc1ccc(OC)c(N(CCN2C(=O)c3ccccc3C2=O)C(=O)CCl)c1`, the GI50 was 4.43 µM and the TGI was 22 µM.

In the case of `COc1ccc(-c2nc(S(=O)(=O)c3ccccc3)c(S(=O)CC(=O)N3CCC(C)CC3)o2)cc1` (stereo not drawn), the GI50 is 1.63 µM and the TGI was 4.65 µM.

For `CC(=O)O[C@H]1C[C@H](O[C@H]2[C@@H](O)C[C@H](O[C@H]3[C@@H](O)C[C@H](O[C@H]4CC[C@@]5(C)C(CCC6C5C[C@@H](O)[C@]5(C)[C@@H](C7=CC(=O)OC7)CC[C@]65O)C4)O[C@@H]3C)O[C@@H]2C)O[C@H](C)[C@H]1O[C@@H]1O[C@H](CO)[C@@H](O)[C@H](O)[C@H]1O` (stereo partly drawn), the GI50 is 0.0856 µM and 0.22 µM; the TGI was 0.223 µM and 0.577 µM.

Regarding `C=C1C(=O)O[C@H]2[C@H]1CC/C(COC(=O)NCc1ccc(Cn3c(=O)sn(CCCC)c3=O)cc1)=C\CC[C@@]1(C)O[C@@H]21`, the GI50 is 1.73 µM and the TGI was determined as 3.63 µM.

As to `Cc1cc(Cl)ccc1Nc1nc(C(F)(F)F)ccc1C(=O)N/N=C/c1cccc(O)c1`, the GI50 was 1.51 µM and the TGI was determined as 9.69 µM.

Take `c1ccc(-c2n(Cc3ccc4ccccc4n3)cc[n+]2Cc2ccc3ccccc3n2)cc1`: the GI50 was 0.221 µM and the TGI stood at 1.43 µM.

As for `COc1ccc2cnc(N)c(C#Cc3cc(C(=O)Nc4ccc(CN5CCN(C)CC5)c(C(F)(F)F)c4)cnc3C)c2c1`, the GI50 is 8.83 µM and the TGI was 27.6 µM.

On to `CC[C@H](C)[C@H](NC(=O)C12CC(NC)(C1)C2)C(=O)N(C)[C@H](C[C@@H](OC(C)=O)c1nc(C(=O)N[C@@H](Cc2ccccc2)C[C@H](C)C(=O)OC)cs1)C(C)C`, for which the GI50 was 0.0591 µM and the TGI is 2.26 µM.

With `O=S(=O)(Nc1cccc(Cl)c1)c1ccc(-c2cnc(C3CC3)o2)cc1`, the GI50 is 0.411 µM and the TGI is 12.2 µM.

Turning to `CC(C)c1ccc(COCc2cc(CN3CCCC3)c(O)c3ncccc23)cc1`, the GI50 is 0.401 µM and the TGI was 1.88 µM.
